Data taken from publication PMC6748986, “Potent modulation of the CepR quorum sensing receptor and virulence in a Burkholderia cepacia complex member using non-native lactone ligands” (Scientific Reports, 2019).
Like-named read-outs stand apart in the source and are kept apart here.

Tests used:
CepR = target: T1, CepR (Burkholderia multivorans, UniProt Q93PF7); test: CepR antagonism in B. multivorans cepI::lacZ reporter (Bm-reporter), competition against C8-AHL; format: cell-based
T1 sequence (Q93PF7 1-239): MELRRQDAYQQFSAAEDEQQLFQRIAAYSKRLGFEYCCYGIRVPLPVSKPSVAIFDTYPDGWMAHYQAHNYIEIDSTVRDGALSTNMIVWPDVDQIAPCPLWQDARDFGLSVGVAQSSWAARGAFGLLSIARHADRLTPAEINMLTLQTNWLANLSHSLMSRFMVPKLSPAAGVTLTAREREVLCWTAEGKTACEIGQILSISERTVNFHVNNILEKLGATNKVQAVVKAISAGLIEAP
From the text: We next sought to assess if the CepR modulators identified in the Ec-reporter maintained their activities in a member of the Bcc. For these studies, we generated a B. multivorans cepI::lacZ reporter organism (Bm-reporter) using standard allelic exchange methods (see Methods). Along with B. cenocepacia, B. multivorans is one of the most commonly isolated Bcc members[6],[44]. We note that small molecules must contend with a different cellular environment in the native organism relative to E. coli[48]; however, as both CepR and the cepI promoter are highly conserved among Bcc species (Fig. S3), we reasoned that the majority of compounds identified in the Ec-reporter (containing B. cenocepacia versions of the cepI promoter and the cepR gene) would maintain their relative activity profiles in CepR in B. multivorans. […] Similar to the Ec-reporter, CepR binding to the cepI promoter then induces β-galactosidase production, allowing for the quantitation of CepR activity. Using the Bm-reporter organism, we observed robust activity for CepR in response to C8-AHL (EC50 = 0.7 nM, Table 3).
The B. multivorans cepI::lacZ strain was used to obtain dose-response data for CepR in response to synthetic AHLs. Overnight cultures of B. multivorans cepI::lacZ were grown in LB medium at 37 °C with shaking (225 rpm). Aliquots (200 μL) of a 1:10 dilution of this overnight culture were plated into 96-well plates containing varying concentrations of compound, and then grown for 4 h at 37 °C with shaking (225 rpm). β-galactosidase production was measured as described above for E. coli, with the following changes: permeabilized cells were incubated at 25 °C with substrate CPRG for ~10 min until positive control wells developed a deep red color. For agonism assays, synthetic compound was screened alongside and compared to the native ligand, C8-AHL (100 μM). For antagonism assays, the concentration of native ligand utilized was 5 nM (approximately equal to twice its EC50 value).

LasR, RhlR, and QscR = test: Comparison of activities in CepR vs. the three LuxR-type receptors in P. aeruginosa; conditions: preliminary analyses; comparison with earlier data ref 22, 24, 59
From the text: To close, the compounds identified herein constitute new chemical tools to study QS in Bcc species in a variety of contexts. Given the strong conservation of CepR between Bcc members, we hypothesize our compounds will maintain their activity profiles across Bcc member species and we can begin to use them to assess the role of CepI/CepR QS on a broader scale. […] A next step moving forward will be to gauge the selectivity of the ligands identified herein for CepR over other LuxR-type receptors. […] Such compounds could allow for the selective targeting of QS in one organism in a mixed culture over time and allow for insights into the potential for interspecies interactions via QS and their effects on host health outcomes. Ongoing studies are focused in this arena, along with further delineating the mechanisms by which our CepR ligands agonize and antagonize CepR, and will be reported in due course.

B. multivorans ATCC17616 = test: Swarming motility assay (0.5% agar); format: cell-based; conditions: 50 μM C8-AHL
From the text: We were interested to assess the effects of our lead CepR modulators on a phenotype under the control of QS in B. multivorans. However, very little work has been reported to directly link CepR activity in B. multivorans to any QS-controlled phenotype. […] Therefore, we chose to study the effects of compound treatment on both the swarming and swimming motility of B. multivorans (B. multivorans ATCC17616; see Methods).
We then tested the ability of our non-native compounds to modulate swimming motility in B. multivorans.
Figure S4. Motility assays (A ) on 0.3% agar (i.e., to measure swimming) with th e B. multivorans parental and cepI::lacZ organisms, using +/- 50 μM C8-AHL and (B) on 0. 5 % ag a r (i.e . , t o measure swarming ) with the B. multivorans parental organism, using +/- 50 μ M C8-AHL. Se e main text for assay methods.
(1 picture or pasted object on this page, not shown here)

[1] = Bm-reporter, against 5 nM C8-AHL

Compound | IC50 (CepR) | Maximal Inhibition (%) (CepR; [1]) | Selectivity for CepR over LasR, RhlR, QscR (LasR, RhlR, and QscR) | CepR antagonism in words (CepR; Bm-reporter) | IC50 (CepR; Bm-reporter, against 5 nM C8-AHL, read-out: IC50) | Swarming motility upon addition of compound (B. multivorans ATCC17616)
CCCCCCCS(=O)(=O)N[C@H]1CCOC1=O [Compound A12] | 1700 nM | 82% | selective for CepR | – | – | –
O=C(Cc1cccc(C(F)(F)F)c1)N[C@H]1CCOC1=O [Compound E3] | 1900 nM | 100% | selective for CepR | bring reporter activity down to nearly zero | – | –
O=C(CC1CCCC1)N[C@H]1CCOC1=O [Compound B12] | 2100 nM | 83% | – | – | – | –
O=C(Cc1cccc(Br)c1)N[C@H]1CCOC1=O [Compound C8] | – | 94% | – | bring reporter activity down to nearly zero | 2600 nM | –
CCCCCCCC(=O)N[C@H]1CCOC1=O [Compound C8-AHL, N-octanoyl L-homoserine lactone, reference compound] | – | – | – | – | – | not increased
O=C(CCc1ccc([N+](=O)[O-])cc1)N[C@H]1CCOC1=O [Compound E37] | – | – | selective for CepR | – | – | –
